molecular target: Factor D (Homo sapiens (Human), UniProt P00746); test: biochemical; assay type: biochemical; conditions: read-out: IC50
Sequence (P00746 26-253): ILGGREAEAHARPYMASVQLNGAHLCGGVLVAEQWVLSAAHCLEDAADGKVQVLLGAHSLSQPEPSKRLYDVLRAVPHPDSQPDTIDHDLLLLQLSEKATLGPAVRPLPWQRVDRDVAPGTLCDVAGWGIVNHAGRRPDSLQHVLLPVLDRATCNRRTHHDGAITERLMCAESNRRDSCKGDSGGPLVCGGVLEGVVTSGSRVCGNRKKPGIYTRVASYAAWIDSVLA

**Q.** NC[C@@]1(F)C[C@@H](C(=O)NCc2c(F)ccc(Cl)c2F)N(C(=O)Cc2cn(C(N)=O)c3ccccc23)C1 [Example 471, 3-{2-[(2S,4S)-4-Aminomethyl-2-(3-chloro-2,6-difluoro-benzylcarbamoyl)-4-fluoro-pyrrolidin-1-yl]-2-oxo-ethyl}-indole-1-carboxylic acid amide] was tested. Which IC50 did it give?
**A.** The IC50 was 89 nM.

**Q.** How did the IC50 turn out when CN(C)CCOc1ccc2c(c1)c(CC(=O)N1[C@@H]3C[C@@H]3C[C@H]1C(=O)NCc1cccc(Cl)c1F)cn2C(N)=O [Example 472, 3-{2-[(1R,3S,5R)-3-(3-Chloro-2-fluoro-benzylcarbamoyl)-2-aza-bicyclo[3.1.0]hex-2-yl]-2-oxo-ethyl}-5-(2-dimethylamino-ethoxy)-indole-1-carboxylic acid amide] was run?
**A.** The IC50 was 255 nM.

**Q.** How did the IC50 turn out when NC(=O)n1cc(CC(=O)N2[C@@H]3C[C@@H]3C[C@H]2C(=O)NCc2cccc(Cl)c2F)c2ccc(CC(=O)O)cc21 [Example 473, (1-Carbamoyl-3-{2-[(1R,3S,5R)-3-(3-chloro-2-fluoro-benzylcarbamoyl)-2-aza-bicyclo[3.1.0]hex-2-yl]-2-oxo-ethyl}-1H-indol-6-yl)-acetic acid] was run?
**A.** Its IC50 is 463 nM.

**Q.** Which IC50 does the source give for NC(=O)n1cc(CC(=O)N2[C@@H]3C[C@@H]3C[C@H]2C(=O)NCc2cccc(Cl)c2F)c2ccc(CCO)cc21 [Example 474, 3-{2-[(1R,3S,5R)-3-(3-Chloro-2-fluoro-benzylcarbamoyl)-2-aza-bicyclo[3.1.0]hex-2-yl]-2-oxo-ethyl}-6-(2-hydroxy-ethyl)-indole-1-carboxylic acid amide] here?
**A.** The IC50 was 95 nM.

**Q.** How did the IC50 turn out when NC(=O)c1cn(CC(=O)N2[C@@H]3C[C@@H]3C[C@H]2C(=O)NCc2cccc(Cl)c2F)c2ccccc12 [Example 475, 1-{2-[(1R,3S,5R)-3-(3-Chloro-2-fluoro-benzylcarbamoyl)-2-aza-bicyclo[3.1.0]hex-2-yl]-2-oxo-ethyl}-1H-indole-3-carboxylic acid amide] was run?
**A.** The IC50 was 350 nM.

**Q.** With NC(=O)c1cn(CC(=O)N2C[C@H](F)C[C@H]2C(=O)NCc2cccc(Cl)c2F)c2ccccc12 [Example 476, 1-{2-[(2S,4R)-2-(3-Chloro-2-fluoro-benzylcarbamoyl)-4-fluoro-pyrrolidin-1-yl]-2-oxo-ethyl}-1H-indole-3-carboxylic acid amide] as the compound, how does the IC50 read?
**A.** The IC50 was 33 nM.

**Q.** For COc1cccc2c(C(N)=O)cn(CC(=O)N3C[C@H](F)C[C@H]3C(=O)NCc3cccc(Cl)c3F)c12 [Example 477, 1-{2-[(2S,4R)-2-(3-Chloro-2-fluoro-benzylcarbamoyl)-4-fluoro-pyrrolidin-1-yl]-2-oxo-ethyl}-7-methoxy-1H-indole-3-carboxylic acid amide], which IC50 is on record?
**A.** Its IC50 is 628 nM.

**Q.** Which IC50 does the source give for CC(=O)c1cn(CC(=O)N2CCCC[C@H]2C(=O)NCc2cccc(Cl)c2F)c2ccccc12 [Example 478, (S)-1-[2-(3-Acetyl-indol-1-yl)-acetyl]-piperidine-2-carboxylic acid 3-chloro-2-fluoro-benzylamide] here?
**A.** The IC50 was 258 nM.

**Q.** How did the IC50 turn out when NC(=O)c1cn(CC(=O)N2C[C@H](F)C[C@H]2C(=O)NCc2cccc(Cl)c2F)c2cc(Br)c(F)cc12 [Example 479, 6-Bromo-1-{2-[(2S,4R)-2-(3-chloro-2-fluoro-benzylcarbamoyl)-4-fluoro-pyrrolidin-1-yl]-2-oxo-ethyl}-5-fluoro-1H-indole-3-carboxylic acid amide] was run?
**A.** The IC50 was 89 nM.

**Q.** With NC(=O)c1cn(CC(=O)N2C[C@H](F)C[C@H]2C(=O)NCc2cccc(Br)c2F)c2ccccc12 [Example 481, 1-{2-[(2S,4R)-2-(3-Bromo-2-fluoro-benzylcarbamoyl)-4-fluoro-pyrrolidin-1-yl]-2-oxo-ethyl}-1H-indole-3-carboxylic acid amide] as the compound, how does the IC50 read?
**A.** Its IC50 is 22 nM.

**Q.** Which IC50 does the source give for CC(=O)c1cn(CC(=O)N2C[C@](C)(F)C[C@H]2C(=O)NCc2cccc(Cl)c2F)c2cnccc12 [Example 482, (2S,4R)-1-[2-(3-Acetyl-pyrrolo[2,3-c]pyridin-1-yl)-acetyl]-4-fluoro-4-methyl-pyrrolidine-2-carboxylic acid 3-chloro-2-fluoro-benzylamide] here?
**A.** Its IC50 is 188 nM.

**Q.** With CC(=O)c1cn(CC(=O)N2[C@@H]3C[C@@H]3C[C@H]2C(=O)NCc2cccc(Cl)c2F)c2ncccc12 [Example 483, (1R,3S,5R)-2-[2-(3-Acetyl-pyrrolo[2,3-b]pyridin-1-yl)-acetyl]-2-aza-bicyclo[3.1.0]hexane-3-carboxylic acid 3-chloro-2-fluoro-benzylamide] as the compound, how does the IC50 read?
**A.** Its IC50 is 60 nM.

**Q.** Which IC50 does the source give for CC(=O)c1cn(CC(=O)N2[C@@H]3C[C@@H]3C[C@H]2C(=O)NCc2ccc(Cl)s2)c2ncccc12 [Example 484, (1R,3S,5R)-2-[2-(3-Acetyl-pyrrolo[2,3-b]pyridin-1-yl)-acetyl]-2-aza-bicyclo[3.1.0]hexane-3-carboxylic acid (5-chloro-thiophen-2-ylmethyl)-amide] here?
**A.** The IC50 was 358 nM.

**Q.** For COc1ccc2c(c1)c(C(C)=O)cn2CC(=O)N1C[C@H](F)[C@@H](OC)[C@H]1C(=O)NCc1cccc(Cl)c1F [Example 485, (2S,3S,4S)-1-[2-(3-Acetyl-5-methoxy-indol-1-yl)-acetyl]-4-fluoro-3-methoxy-pyrrolidine-2-carboxylic acid 3-chloro-2-fluoro-benzylamide], which IC50 is on record?
**A.** The IC50 was 15 nM.

**Q.** Which IC50 does the source give for NC(=O)c1cn(CC(=O)N2C[C@H](F)C[C@H]2C(=O)Nc2cccc(Cl)c2F)c2ccccc12 [Example 486, 1-{2-[(2S,4R)-2-(3-Chloro-2-fluoro-phenylcarbamoyl)-4-fluoro-pyrrolidin-1-yl]-2-oxo-ethyl}-1H-indole-3-carboxylic acid amide] here?
**A.** Its IC50 is 2450 nM.

**Q.** How did the IC50 turn out when COc1ccc2c(C(C)=O)cn(CC(=O)N3C[C@H](F)[C@@H](OC)[C@H]3C(=O)NCc3cccc(Cl)c3F)c2c1 [Example 487, (2S,3S,4S)-1-[2-(3-Acetyl-6-methoxy-indol-1-yl)-acetyl]-4-fluoro-3-methoxy-pyrrolidine-2-carboxylic acid 3-chloro-2-fluoro-benzylamide] was run?
**A.** Its IC50 is 13 nM.

**Q.** NC(=O)c1cn(CC(=O)N2C[C@H](F)C[C@H]2C(=O)NCc2cccc(Cl)c2F)c2ccc(Cl)cc12 [Example 488, 5-Chloro-1-{2-[(2S,4R)-2-(3-chloro-2-fluoro-benzylcarbamoyl)-4-fluoro-pyrrolidin-1-yl]-2-oxo-ethyl}-1H-indole-3-carboxylic acid amide] was tested. Which IC50 did it give?
**A.** The IC50 was 250 nM.

**Q.** How did the IC50 turn out when NC(=O)c1cn(CC(=O)N2C[C@H](F)C[C@H]2C(=O)NCc2cccc(Cl)c2F)c2c(Cl)cccc12 [Example 489, 7-Chloro-1-{2-[(2S,4R)-2-(3-chloro-2-fluoro-benzylcarbamoyl)-4-fluoro-pyrrolidin-1-yl]-2-oxo-ethyl}-1H-indole-3-carboxylic acid amide] was run?
**A.** The IC50 was 124 nM.

**Q.** How did the IC50 turn out when COC[C@@]12C[C@@H](C(=O)NCc3cccc(Cl)c3F)N(C(=O)Cn3cc(C(C)=O)c4cccnc43)[C@@H]1C2 [Example 490, (1R,3S,5S)-2-[2-(3-Acetyl-pyrrolo[2,3-b]pyridin-1-yl)-acetyl]-5-methoxymethyl-2-aza-bicyclo[3.1.0]hexane-3-carboxylic acid 3-chloro-2-fluoro-benzylamide] was run?
**A.** Its IC50 is 214 nM.

**Q.** With NC(=O)c1cn(CC(=O)N2C[C@H](F)C[C@H]2C(=O)NCc2cccc(Cl)c2F)c2cc(Cl)ccc12 [Example 491, 6-Chloro-1-{2-[(2S,4R)-2-(3-chloro-2-fluoro-benzyl-carbamoyl)-4-fluoro-pyrrolidin-1-yl]-2-oxo-ethyl}-1H-indole-3-carboxylic acid amide] as the compound, how does the IC50 read?
**A.** The IC50 was 28 nM.

**Q.** Which IC50 does the source give for NC(=O)c1cn(CC(=O)N2C[C@H](F)C[C@H]2C(=O)NCc2cccc(Cl)c2F)c2cc(F)c(F)cc12 [Example 492, 1-{2-[(2S,4R)-2-(3-Chloro-2-fluoro-benzylcarbamoyl)-4-fluoro-pyrrolidin-1-yl]-2-oxo-ethyl}-5,6-difluoro-1H-indole-3-carboxylic acid amide] here?
**A.** The IC50 was 237 nM.

**Q.** How did the IC50 turn out when COc1cnc2c(c1)c(C(C)=O)cn2CC(=O)N1[C@@H]2C[C@@H]2C[C@H]1C(=O)NCc1cccc(Cl)c1F [Example 494, (1R,3S,5R)-2-[2-(3-Acetyl-5-methoxy-pyrrolo[2,3-b]pyridin-1-yl)-acetyl]-2-aza-bicyclo [3.1.0]hexane-3-carboxylic acid 3-chloro-2-fluoro-benzylamide] was run?
**A.** Its IC50 is 50 nM.

**Q.** Which IC50 does the source give for O=C(NCc1cccc(Cl)c1F)[C@@H]1C[C@H]2C[C@H]2N1C(=O)Cn1cc(C(=O)C(F)(F)F)c2ccccc21 [Example 495, (1R,3S,5R)-2-{2-[3-(2,2,2-Trifluoro-acetyl)-indol-1-yl]-acetyl}-2-aza-bicyclo[3.1.0] hexane-3-carboxylic acid 3-chloro-2-fluoro-benzylamide] here?
**A.** Its IC50 is 19 nM.

**Q.** C[C@@]1(F)C[C@@H](C(=O)NCc2cccc(Cl)c2F)N(C(=O)Cn2cc(C(N)=O)c3ccccc32)C1 [Example 496, 1-{2-[(2S,4R)-2-(3-Chloro-2-fluoro-benzylcarbamoyl)-4-fluoro-4-methyl-pyrrolidin-1-yl]-2-oxo-ethyl}-1H-indole-3-carboxylic acid amide] was tested. Which IC50 did it give?
**A.** The IC50 was 176 nM.

**Q.** For COc1ccc2c(c1)c(C(N)=O)cn2CC(=O)N1C[C@H](F)C[C@H]1C(=O)NCc1cccc(Cl)c1F [Example 497, 1-{2-[(2S,4R)-2-(3-Chloro-2-fluoro-benzylcarbamoyl)-4-fluoro-pyrrolidin-1-yl]-2-oxo-ethyl}-5-methoxy-1H-indole-3-carboxylic acid amide], which IC50 is on record?
**A.** The IC50 was 128 nM.

**Q.** How did the IC50 turn out when CC(=O)c1cn(CC(=O)N2C[C@H](F)C[C@H]2C(=O)NCc2cc(C#N)cc(Cl)c2F)c2ccccc12 [Example 498, (2S,4R)-1-[2-(3-Acetyl-indol-1-yl)-acetyl]-4-fluoro-pyrrolidine-2-carboxylic acid 3-chloro-5-cyano-2-fluoro-benzylamide] was run?
**A.** Its IC50 is 692 nM.

**Q.** COc1ccc2c(C(N)=O)cn(CC(=O)N3C[C@H](F)C[C@H]3C(=O)NCc3cccc(Cl)c3F)c2c1 [Example 499, 1-{2-[(2S,4R)-2-(3-Chloro-2-fluoro-benzylcarbamoyl)-4-fluoro-pyrrolidin-1-yl]-2-oxo-ethyl}-6-methoxy-1H-indole-3-carboxylic acid amide] was tested. Which IC50 did it give?
**A.** The IC50 was 36 nM.

**Q.** How did the IC50 turn out when COc1ccc2c(C(C)=O)cn(CC(=O)N3C[C@H](F)C[C@H]3C(=O)NCc3cccc(Cl)c3F)c2c1 [Example 500, (2S,4R)-1-[2-(3-Acetyl-6-methoxy-indol-1-yl)-acetyl]-4-fluoro-pyrrolidine-2-carboxylic acid 3-chloro-2-fluoro-benzylamide] was run?
**A.** Its IC50 is 36 nM.

— patent US9085555B2, “Complement pathway modulators and uses thereof” (priority 2011, dated 2015)
